From US9629816B2, “Small molecule therapeutic compounds targeting thioesterase deficiency disorders and methods of using the same” (The United States of America, as represented by the …, priority 2011, dated 2017)

Assays:
[1] = Solubility in tissue culture media; assay type: physicochemical
INCL fibroblasts = test: MTT viability of cultured INCL fibroblasts; assay type: cell-based, human; conditions: 48 hours of treatment; viability as percent of untreated control (FIG. 4A-C)
Experimental: Ten out of the twelve HA-derivative compounds listed in Table 1 were tested to determine whether they adversely affected the viability of cultured cells from INCL patients. […] Briefly, following treatment with HA-derivatives INCL cells were incubated with Thiazolyl Blue Tetrazolium […] for 4 hours at 37° C. Formazan crystals thus formed were dissolved in acidified isopropanol and absorption was measured at 570 nm. Viability was expressed as percent of untreated control.
Briefly, normal fibroblasts (GM 00498) were obtained from the Coriell Institute of Medical Research, USA. PPT1-deficient INCL fibroblasts were isolated from skin biopsy samples of INCL patients admitted to an ongoing clinical protocol (#01-CH-0086) approved by the Institutional Review Board (IRB) of the National Institute of Child Health and Human Development (NICHD) at the National Institute of Health (NIH). […] The fibroblasts were cultured in the presence or absence of varying concentrations of each of the HA-derivatives for 48 hours, after which the viability of the cells was determined using the MTT-Cell Viability Assay by T. Mossman, (Rapid colorimetric assay for cellular growth and survival. J. Immunol. Method. 65 (1983) 55-63).

[2] = Cleavage of thioester linkage in [14C]palmitoyl-CoA, release of free [14C]palmitate (TLC, autoradiography); assay type: biochemical; conditions: varying concentrations; various incubation times; [14C]palmitate production
Experimental: It has been reported that thioester linkages in s-acylated proteins are labile, and that compounds having nucleophilic properties are able to disrupt such linkages. Thus, the ability of derivatives of hydroxylamine to disrupt thioester linkages in s-acylated proteins was tested. Twelve HA-derivatives, described in Table 1, were screened for their ability to cleave thioester linkage in [^14C]palmitoyl˜CoA (a model thioester substrate of PPT1), mediating the release of free [^14C]palmitic acid, a process depicted in FIG. 2. […] [^14C]-palmitoyl-CoA was incubated for 1 hour with each of the HA derivatives and the reaction mixture was resolved by thin layer chromatography (TLC) followed by autoradiography. The free [^14C]-palmitate bands were visible and quantitated by densitometric analysis of the bands.

Structure (SMILES) | solubility in tissue culture media [1] | dose- and time-dependence of thioester linkage cleavage in [14C]palmitoyl-CoA [2] | further results
ON(Cc1ccccc1)Cc1ccccc1 [N,N-dibenzylhydroxylamine, N,N-Dibenzylhydroxylamine] | insoluble in tissue culture media |  | 
O=C(c1ccccc1)N(O)c1ccccc1 [N-Benzoyl-N-phenyl hydroxylamine] |  |  | toxicity / viability of INCL cells (MTT) (INCL fibroblasts): all ten compounds except N-Benzoyl-N-phenyl hydroxylamine are non-toxic
CC(ON(C(c1ccccc1)C(C)C)C(C)(C)C)c1ccc(CCl)cc1 (centres unmarked) [N-tert-Butyl-O-[1-[4-(chloromethyl)phenyl]ethyl]-N-(2-methyl-1-phenylpropyl)hydroxylamine] | insoluble in tissue culture media |  | 
ONCc1ccccc1 [benzyl-HA, N-Benzylhydroxylamine] |  | cleaved the thioester linkage in a dose-dependent and time-dependent manner | 
CNO [methyl-HA, N-Methylhydroxylamine] |  | cleaved the thioester linkage in a dose-dependent and time-dependent manner | 
